Data from patent US20050244414A1, “Method to ameliorate osteolysis and metastasis” (XENOTECH INCORPORATED, priority 1995, published 2005).

B1: PTH: parathyroid hormone, bone resorption stimulating factor added to culture medium (protein, UniProt P01270 32-115, looked up)
Parathyroid hormone: SVSEIQLMHNLGKHLNSMERVEWLRKKLQDVHNFVALGAPLAPRDAGSQRPRKKEDNVLVESHEKSLGEADKADVNVLTKAKSQ
modifications: Parathyroid hormone
notes: parathyroid hormone, bone resorption stimulating factor added to culture medium

Columns and labels:
[1] = system: bone resorption; details: cited from earlier work
[2] = system: fetal rat long bone; assay: Bone resorption measured as 45Ca release in organ culture; assay type: cell-based; details: stimulating factor alone at 10 ng/ml, 120 hours; untreated bones roughly 20%
Protocol: In this example, the percentage of labeled calcium (^45Ca) from fetal rat long bone was used as a measure of bone resorption. To label the bones, pregnant female rats at the 18th day of gestation were injected subcutaneously with 50 μCi of labeled calcium salt. The embryos were harvested the next day, at 19 days gestation, and long bones were obtained from the fetuses. The bones were cultured in standard media for 120 hours in the presence or absence of various putative bone resorption stimulation factors and in the presence and absence of the anti-PTH-rp (1-34) antibody used in Preparation A. The results are shown in FIG. 2.

Row | Molecule | potency relative to etidronate, ability to inhibit bone resorption [1] | release of labeled calcium (45Ca) into the medium [2] [%]
1 | NCCC(O)(P(=O)(O)O)P(=O)(O)O [pamidronate] | approximately 100 times | –
2 | parathyroid hormone-related protein [PTH-rp] | – | ~90
3 | B1 | – | ~90
